This passage reports Ki results from patent US8232269B2, “Amide compounds useful in therapy” (Pfizer Inc., priority 2008, dated 2012).

Where a name gives a salt, the structure may show the parent alone.

The target of this assay is T1, Progesterone Receptor (PR) (Homo sapiens, UniProt P06401).
T1 construct: endogenous in cells; host or cells: T47D human breast mammary carcinoma cells
T1 sequence (P06401 1-933): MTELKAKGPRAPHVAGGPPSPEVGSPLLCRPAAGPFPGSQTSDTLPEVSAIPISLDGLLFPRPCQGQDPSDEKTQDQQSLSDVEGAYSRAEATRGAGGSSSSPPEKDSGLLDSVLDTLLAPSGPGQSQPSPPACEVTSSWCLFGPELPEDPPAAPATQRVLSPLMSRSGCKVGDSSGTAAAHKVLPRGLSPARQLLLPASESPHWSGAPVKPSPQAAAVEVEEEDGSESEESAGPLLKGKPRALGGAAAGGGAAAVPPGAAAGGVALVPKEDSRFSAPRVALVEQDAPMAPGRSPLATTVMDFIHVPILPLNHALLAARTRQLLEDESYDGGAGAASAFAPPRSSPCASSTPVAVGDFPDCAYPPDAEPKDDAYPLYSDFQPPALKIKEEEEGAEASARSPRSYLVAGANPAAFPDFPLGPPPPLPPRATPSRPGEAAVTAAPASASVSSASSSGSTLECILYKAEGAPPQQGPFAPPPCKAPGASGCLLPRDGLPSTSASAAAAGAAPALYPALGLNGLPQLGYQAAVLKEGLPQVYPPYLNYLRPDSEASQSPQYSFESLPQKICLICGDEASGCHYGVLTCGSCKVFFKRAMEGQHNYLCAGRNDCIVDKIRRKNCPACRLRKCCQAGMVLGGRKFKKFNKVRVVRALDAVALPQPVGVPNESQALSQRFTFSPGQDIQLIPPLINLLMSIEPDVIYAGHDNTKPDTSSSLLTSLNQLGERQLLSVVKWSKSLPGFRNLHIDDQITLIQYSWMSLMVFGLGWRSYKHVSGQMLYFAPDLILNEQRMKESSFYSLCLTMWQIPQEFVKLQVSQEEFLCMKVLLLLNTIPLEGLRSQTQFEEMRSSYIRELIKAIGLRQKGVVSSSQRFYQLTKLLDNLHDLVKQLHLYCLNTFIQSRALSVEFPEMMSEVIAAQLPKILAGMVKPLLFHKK
Put plainly: In vitro functional assay for progesterone receptor (PR) antagonists: inhibition of progesterone-induced alkaline phosphatase expression in T47D cells. Format: cell-based. Particulars: antagonist format, 5 nM progesterone, Ki calculated from IC50 with the Cheng-Prusoff equation. The text has this: 1.0 In vitro Functional Assay for Progesterone Receptor (PR) Antagonists, Agonists and Modulators
The assay for PR antagonism takes advantage of the extensively reported modulation of alkaline phosphatase (AP) expression in human breast T47D mammary carcinoma cells {Beck et al., D. P. (1993). The progesterone antagonist RU486 acquires agonist activity upon stimulation of cAMP signalling pathways. Proc Natl Acad Sci USA 90, 4441-4445; Fensome et al. (2002). New progesterone receptor antagonists: 3,3-disubstituted-5-aryloxindoles. Bioorg Med Chem Lett 12, 3487-3490; Zhang et al., (2002a). 6-Aryl-1,4-dihydro-benzo d1,3oxazin-2-ones: a novel class of potent, selective, and orally active nonsteroidal progesterone receptor antagonists. Journal of Medicinal Chemistry 45, 4379-4382; Zhang et al., (2003). Novel 6-aryl-1,4-dihydrobenzo d oxazine-2-thiones as potent, selective, and orally active nonsteroidal progesterone receptor agonists. Bioorganic & Medicinal Chemistry Letters 13, 1313-1316; Zhang et al., (2002b). Potent nonsteroidal progesterone receptor agonists: synthesis and SAR study of 6-aryl benzoxazines. Bioorganic & Medicinal Chemistry Letters 12, 787-790; Zhang, Z. et al., (2000). In vitro characterization of trimegestone: a new potent and selective progestin. Steroids 65, 637-643}. […] In the absence of progesterone any agonist activity is also observed as an induction of AP activity. By running the assay in two formats (+/−progesterone (P4)), compounds behaving as PR antagonists, agonists, partial agonists or modulators with mixed agonist/antagonist activity can be identified.
Briefly, T47D cells are grown by propagating in DMEM with phenol red+10% FCS+2 mM Glutamine at 37° C./5% CO2. At 70-80% confluence, the media is exchanged for phenol red free DMEM+5% CS-FCS (Assay media). Cells are incubated overnight in assay media then harvested and frozen in assay media containing 10% DMSO at 1.5e7 cells/mL in 2 mL aliquots using a Planer and immediately stored in liquid nitrogen. Vials are removed from liquid nitrogen storage and immediately thawed in a water bath at 37° C. The cell suspension is added dropwise to 20 mL of assay media, then the tube centrifuged at 1000 rpm for 4 minutes, the supernatant is discarded and the pellet re-suspended in 20 mL assay media. T47D cells are then plated at 8750 cells/well in 35 μL assay media in sufficient white solid 384 well TC plates for the assay. For the agonist format assay a further 10 μL of assay media is added to each well. These plates are then cultured for 3-6 hours at 37° C./5% CO2 before compound addition.
Test substances are prepared by in 100% DMSO, half log concentrations from 4 mM in 384 well plates 5 μL/well (referred to here as ‘grandmother plates’). Progesterone is 100 μM made up in ethanol and PBS (i.e. add 1 mL ethanol to progesterone initially to help dissolving) and stored in 0.5-1 mL aliquots at −20° C.
Using a multidrop (Thermolabsystems), 60 μL/well of buffer is added to a 384 well plate—this will be the ‘mother plate’. _Add 45 μL well buffer to grandmother plate using the multidrop (=400 μM 10% DMSO dilution). Mixed and spun to remove air bubbles. • 20 μL is taken from the grandmother plate (400 μM 10% DMSO) and added to the mother plate (=100 μM 2.5% DMSO). Mixed and spun to remove air bubbles Preparation of Max/Min:
Antagonist Min: (Checker Pattern on Plate Map) 1 μM RU-486 (FAC 0.1 μM) • 50 μL of 0.2 mM RU-486 • 10 mL Diluent Addition of Test Substance to Cell Plates • The PlateMate Plus was used to add 5 μL MAX/MIN to cell plates • Then 5 μL test substances are added from the mother plate (after removing max/min PlateMate tips: columns 1 and 24)
Addition of Agonist (5 nM Progesterone FAC) for Antagonist Format Only
25 nM progesterone in assay media is prepared from 100 μM stock (12.5 μL progesterone/50 mL media), from which 10 μL per well is transferred to the assay plate using the PlateMate Plus (already containing cells & compound). […]
Take `CC(C)n1nc(-c2ccc(C#N)cc2)c(C2CC2)c1C(=O)NC[C@H](C)O` [Example 2, 3-(4-Cyano-phenyl)-4-cyclopropyl-N-[(2S)-2-hydroxypropyl]-1-isopropyl-1H-pyrazole-5-carboxamide]: the Ki was 9.39 nM.

`CC(C)n1nc(-c2ccc(C#N)cc2)c(C2CC2)c1C(=O)NC[C@@H](C)O` [Example 3, 3-(4-Cyano-phenyl)-4-cyclopropyl-N-[(2R)-2-hydroxypropyl]-1-isopropyl-1H-pyrazole-5-carboxamide]: the Ki is 13.9 nM. In the case of `CC(C)NC(=O)c1c(C2CC2)c(-c2ccc(C#N)cc2)nn1C(C)C` [Example 4, 3-(4-Cyano-phenyl)-4-cyclopropyl-N,1-diisopropyl-1H-pyrazole-5-carboxamide] it was 7.06 nM; in that of `CC(C)n1nc(-c2ccc(C#N)cc2)c(C2CC2)c1C(=O)N[C@@H]1CCN(C(=O)OC(C)(C)C)C1` [Example 5, tert-Butyl (3R)-3-({[3-(4-cyanophenyl)-4-cyclopropyl-1-isopropyl-1H-pyrazol-5-yl]carbonyl}amino)-pyrrolidine-1-carboxylate], 7.92 nM; in that of `CC(C)n1nc(-c2ccc(C#N)cc2)c(C2CC2)c1C(=O)NC1CN(C(=O)OC(C)(C)C)C1` [Example 7, tert-Butyl 3-({[3-(4-cyanophenyl)-4-cyclopropyl-1-isopropyl-1H-pyrazol-5-yl]carbonyl}amino)azetidine-1-carboxylate], 9.73 nM. Consider `CC(C)n1nc(-c2ccc(C#N)cc2)c(C2CC2)c1C(=O)N[C@@H]1CCNC1` [Example 8, 3-(4-Cyanophenyl)-4-cyclopropyl-1-isopropyl-N-[(3R)-pyrrolidin-3-yl]-1H-pyrazole-5-carboxamide hydrochloride], for which the Ki was 162 nM.

Regarding `CC(C)n1nc(-c2ccc(C#N)cc2)c(C2CC2)c1C(=O)N[C@H]1CCNC1` [Example 9, 3-(4-Cyanophenyl)-4-cyclopropyl-1-isopropyl-N-[(3S)-pyrrolidin-3-yl]-1H-pyrazole-5-carboxamide hydrochloride], the Ki was 836 nM. Regarding `CC(C)n1nc(-c2ccc(C#N)cc2)c(C2CC2)c1C(=O)NC1CNC1` [Example 10, N-Azetidin-3-yl-3-(4-cyanophenyl)-4-cyclopropyl-1-isopropyl-1H-pyrazole-5-carboxamide], the inhibition constant (Ki) is 285 nM. As for `CC(C)C(=O)N1CC[C@@H](NC(=O)c2c(C3CC3)c(-c3ccc(C#N)cc3)nn2C(C)C)C1` [Example 11, 3-(4-Cyanophenyl)-4-cyclopropyl-N-[(3R)-1-isobutyrylpyrrolidin-3-yl]-1-isopropyl-1H-pyrazole-5-carboxamide], the figure is 18.6 nM; as for `CC(C)n1nc(-c2ccc(C#N)cc2)c(C2CC2)c1C(=O)N[C@@H]1CCN(S(C)(=O)=O)C1` [Example 13, 3-(4-Cyanophenyl)-4-cyclopropyl-1-isopropyl-N-[(3R)-1-(methylsulfonyl)pyrrolin-3-yl]-1H-pyrazole-5-carboxamide], 34.8 nM. Take `CC(C)C(=O)N1CC[C@H](NC(=O)c2c(C3CC3)c(-c3ccc(C#N)cc3)nn2C(C)C)C1` [Example 14, 3-(4-Cyanophenyl)-4-cyclopropyl-N-[(3S)-1-isobutyrylpyrrolidin-3-yl]-1-isopropyl-1H-pyrazole-5-carboxamide]: the Ki is 302 nM. Consider `CCC(=O)N1CC[C@H](NC(=O)c2c(C3CC3)c(-c3ccc(C#N)cc3)nn2C(C)C)C1` [Example 15, 3-(4-Cyanophenyl)-4-cyclopropyl-1-isopropyl-N-[(3S)-1-propionylpyrrolidin-3-yl]-1H-pyrazole-5-carboxamide], for which the inhibition constant (Ki) was 280 nM. In the case of `CC(C)C(=O)N1CC(NC(=O)c2c(C3CC3)c(-c3ccc(C#N)cc3)nn2C(C)C)C1` [Example 16, 3-(4-Cyanophenyl)-4-cyclopropyl-N-(1-isobutyrylazetidin-3-yl)-1-isopropyl-1H-pyrazole-5-carboxamide], the Ki is 42.8 nM. Regarding `CCC(=O)N1CC(NC(=O)c2c(C3CC3)c(-c3ccc(C#N)cc3)nn2C(C)C)C1` [Example 17, 3-(4-Cyanophenyl)-4-cyclopropyl-1-isopropyl-N-(1-propionylazetidin-3-yl)-1H-pyrazole-5-carboxamide], the Ki is 42.2 nM. Consider `CC(C)n1nc(-c2ccc(C#N)cc2)c(C2CC2)c1C(=O)NC1CN(S(C)(=O)=O)C1` [Example 18, 3-(4-Cyanophenyl)-4-cyclopropyl-1-isopropyl-N-[1-(methylsulfonyl)azetidin-3-yl]-1H-pyrazole-5-carboxamide], for which the Ki is 38.2 nM. Turning to `CC(=O)N1CC(NC(=O)c2c(C3CC3)c(-c3ccc(C#N)cc3)nn2C(C)C)C1` [Example 19, N-(1-Acetylazetidin-3-yl)-3-(4-cyanophenyl)-4-cyclopropyl-1-isopropyl-1H-pyrazole-5-carboxamide], the Ki is 51.4 nM. In the case of `CCCNC(=O)c1c(C2CC2)c(-c2ccc(C#N)cc2)nn1C(C)C` [Example 20, 3-(4-Cyanophenyl)-4-cyclopropyl-1-isopropyl-N-propyl-1H-pyrazole-5-carboxamide] it was 3.78 nM. For `COCCCNC(=O)c1c(C2CC2)c(-c2ccc(C#N)cc2)nn1C(C)C` [Example 21, 3-(4-Cyanophenyl)-4-cyclopropyl-1-isopropyl-N-(3-methoxypropyl)-1H-pyrazole-5-carboxamide], the Ki was 8.27 nM. As to `CC(C)n1nc(-c2ccc(C#N)cc2)c(C2CC2)c1C(=O)NCCC(F)(F)F` [Example 22, 3-(4-Cyanophenyl)-4-cyclopropyl-1-isopropyl-N-(3,3,3-trifluoropropyl)-1H-pyrazole-5-carboxamide], the Ki was 6.67 nM. As for `CC(C)n1nc(-c2ccc(C#N)cc2)c(C2CC2)c1C(=O)NCc1ccncn1` [Example 23, 3-(4-Cyanophenyl)-4-cyclopropyl-1-isopropyl-N-(pyrimidin-4-ylmethyl)-1H-pyrazole-5-carboxamide], the figure is 10.2 nM.
